Laboratory results as given in patent publication US20260248720A1, “COMPOSITIONS SUITABLE FOR THE ADMINISTRATION OF CREATINE ESTERS” (priority 2023, published 2026).

Assay: Chemical stability of DCE in the particulate emulsion (HPLC/UV)
Type: physicochemical
Protocol: The chemical stability of DCE in the particulate emulsion was monitored using an HPLC/UV method at 4° C. and at room temperature.

[1] = extrapolation with the slope of the decay

## CCCCCCCCCCCCOC(=O)CN(C)C(=N)N [DCE, dodecyl creatine ester]
[1]
  Calculation of remaining content (%) after 1 month of storage at room temperature: 99%
  Estimation of remaining content after 18 months of storage at 4° C.: more than 95%
Storage at room temperature (20-25° C.)
  Period over which DCE is stable: more than 20 days
Storage in the fridge (4° C.)
  Period over which DCE is stable: more than 3 months
